Results from patent publication EP4663632A1, “COMPOUNDS USEFUL FOR THE MODULATION OF THE ACTIVITY OF STING” (Sulis Therapeutics ApS, priority 2024, dated 2025).

Columns and labels:
STING [1] = target: T1, STING (Homo sapiens, UniProt Q86WV6); experiment: Inhibition of STING-agonist-induced IFN-β release in H596 cells (H596 STING inhibition assay); format: cell-based; conditions: 24h with compound, then 0.3 µM GSK STING agonist, 6h; ELISA
Procedure: Cell supernatants were analysed for IFN-β release using DuoSet human IFN-β ELISA (R&D systems, DY-814) following manufactures protocol except using 96-well, half-volume plates from Corning and subsequently use half volume for all steps throughout the protocol. In brief, plates were coated o/n with a 130x dilution of capturing antibody in PBS. Wells were washed 3x with PBS-T20 followed by blocking with 1% BSA diluted in TBS-T20 for 1h. Wells were washed 3x with PBS-T20 and standards (n=2) and samples (n=3) were added to the plate and incubated for 2h at rt. Wells were washed 3x with PBS-T20 and detection antibody diluted 1:60 in 1% BSA in PBS was added to each well and incubated for 2h at rt. Plates were washed 3x with PBS-T20 and Streptavidin-HRP diluted 1:40 in 1% BSA in PBS was added pr well and incubated for 30 min at rt. The wells were washed 4x with PBS-T20 and TMB One Substrate (Promega) was added and incubated for 5-10 min in the dark. When fully developed, 1 mmol/L Sulfuric acid was added to stop the reaction. Signals were measured using BioTek Synergy H1 plate reader at 450nm and 570nm (reference).
Raw data values were quantified based on the standard curve using blank subtracted Δ450nm-570nm values generated using the Gen5 software connected to the plate reader. Concentrations were plotted into GraphPad Prism to calculate EC50 values using a 4-parameter non-linear regression fitting curve, bottom constrains set for >0.
To determine cellular effects of test compounds, we assessed inhibition of STING-agonist-induced IFN-β release in H596 cells (ATCC, HTB-178). Cells were seeded at a density of 25.000 cells/well in 96-well Nunclon Delta surface treated culture plate in RPMI-1640 growth medium (supplemented with 10% FBS, 1% Pen-strep). Cells were incubated over-night at 37°C 5% CO2 to allow adhesion. Next morning growth medium was renewed and a 10x concentration, 3-step dilution series of test compounds diluted in growth medium (5% DMSO) were added to the appropriate well. Final DMSO concentration was 0.5%. Cells were further incubated for 24h followed by incubation with a 10x concentration of GSK STING agonist (CAS number: 2138299-34-8), final concentration was 0.3 µM. Cells culture plates were further incubated, and supernatants were harvested after 6h and immediately stored at -20°C until determination of IFN-β release.
For ELISA and data analysis, the methods described above for HFF-1 cells were applied.

[2] = target: C-terminal domain (CTD) of human STING (Homo sapiens, UniProt Q86WV6); experiment: STING binding FP assay III; design: recombinant human STING protein (155-379); conditions: 10 nM STING (FP assay III according to the text); read-out: STING binding FP assay II, IC50
Summary of the method: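 FP competition assay using 10 nM recombinant human STING (155-379) and 4 nM fluorescein-labelled STING ligand in 150 mM NaCl, 50 mM HEPES pH 7.5, 1 mM DTT with Tween-20. Plates were incubated 20 min at room temperature and read at Ex 485/Em 528 nm. IC50 values came from four-parameter fits.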

STING [3] = target: T1, STING; experiment: Western Blot analysis for STING degradation (DC50) in HFF-1 cells; format: cell-based; design: host or cells: HFF-1 human foreskin fibroblasts; conditions: 24h; reference protein vinculin
Procedure: To assess STING degradation in human foreskin fibroblasts HFF-1 cells (ATCC, SCRC-1041) cells were seeded at a density of 60.000 cells/well in 24-well Nunclon Delta surface treated culture plate in DMEM growth medium (supplemented with 10% FBS, 1% Pen-strep). Cells were incubated over-night at 37°C 5% CO2 to allow adhesion. Next day growth medium was renewed and a 5x concentration of test compounds (2.5% DMSO) diluted in growth medium were added to the appropriate well. The final DMSO concentration were 0.5%. Cell culture plates were returned to the incubator for additional 24h.
(§1) For cell lysing for Western Blot analysis cell culture plates were brought to ice, supernatant was removed by aspiration and cells washed 2x in ice-cold DPBS. Cells were lysed in 65 µL of RIPA buffer supplemented with cOmplete ULTRA Tablets protease inhibitor cocktail, PIERCE Phosphatase inhibitor mini tablet, Benzonase and 10mM NaF for 20 min on ice. Lysates were collected, cleared by centrifugation (13000xg for 10 min at 4°C). Samples were either analysed directly or stored at -80°C until analysis.
(§2) For Western Blotting, total protein concentration in each lysate was determined using PIERCE Gold BCA Assay kit according to manufactures protocol. 6 µg of total protein was mixed with 2x Laemmli buffer containing DTT, boiled for 5 min at 95°C, cooled on ice and loaded into each well of a 4-20% Criterion TGX gel. Proteins were separated by electrophoresis, by running for 1h at 150V. After separation proteins were blotted onto a PVDF membrane by semi-dry transfer using Trans-Blot turbo system at pre-defined BioRad MIDI protocol; 25V, 1A (fixed) for 30 min. Membranes were blocked for 1h in 5% skim milk in TBS-T20 on a rocker at room temperature followed by washing and exposure to primary antibodies against human STING 1:1000 (Cell Signalling, #13647) or loading controls Vinculin 1:1000 (Cell Signalling, #13901) or beta-Actin 1:10000 (Sigma, A5441) all diluted in 5% BSA in TBS-T20. Membranes were probed over night at 4°C on a rocker. Membranes were washed 3x in TBS-T20 followed by exposure to secondary HRP-conjugated anti-rabbit antibody or HRP-conjugated anti-mouse antibody diluted 1:10000 in 5% skim milk in TBS-T20 as appropriate. Membranes were incubated for 1h at room temperature on a rocker, then washed 3x in TBS-T20.
(§3) For generating DC50 values, the intensity of individual bands was measured using imaged and expression levels were calculated as a ratio of STING intensities vs. Reference protein intensities and normalized to DMSO control. The normalized ratios were plotted on a XY curve in GraphPad Prism where DC50 was estimated using a 4-parameter non-linear regression fitting curve.

STING [4] = target: T1, STING; experiment: Western Blot analysis for STING degradation in H596 cells; format: cell-based; conditions: 24h; reference protein beta-actin
Procedure: as §1, §2, §3
To assess STING degradation in H596 cells (ATCC, HTB-178) cells were seeded at a density of 100.000 cells/well in 24-well Nunclon Delta surface treated culture plate in RPMI-1640 growth medium (supplemented with 10% FBS, 1% Pen-strep). Cells were incubated over-night at 37°C 5% CO2 to allow adhesion. Next day growth medium was renewed and a 5x concentration of test compounds (2.5% DMSO) diluted in growth medium were added to the appropriate well. Final DMSO concentration was 0.5%. Cell culture plates were returned to the incubator for additional 24h. Final test compound concentrations were 0.22 µM, 0.67 µM, 2 µM and 6 µM.
For cell lysis, western blotting and data analysis, the methods described above for HFF-1 cells were applied.

STING [5] = target: T1, STING; experiment: Inhibition of STING-agonist-induced IFN-β and CXCL10 release by Compounds A9 and A11; format: cell-based; design: host or cells: HFF-1 human foreskin fibroblasts; conditions: 1 to 2 hours prior to, simultaneously with, or 15 minutes after diABZI c3
Procedure: HFF-1 cells were also assessed for inhibition of STING-agonist-induced IFN-β and CXCL10 release in cells treated with Compounds A9 and A11. […] In contrast, pre-treating cells for 1 to 2 hours prior to diABZI c3, simultaneous treatment with A9 and diABZI c3, or pre-treating cells for 15 minutes with diABZI c3 followed by A9 treatment led to a decrease in the IFN media concentration to ~100 U/mL. […] In contrast, cells pre-treated for 1 to 2 hours prior to diABZI c3, simultaneous treatment with A9 and diABZI c3, or pre-treating cells for 15 minutes with diABZI c3 followed by A9 treatment led to a decrease in the CXCL10 media concentration to […] (Figure 9B, unfiled bars).
In contrast, pre-treating cells for 1 to 2 hours prior to diABZI c3, simultaneous treatment with A11 and diABZI c3, or pre-treating cells for 15 minutes with diABZI c3 followed by A11 treatment led to a decrease in the IFN media concentration to -10 - 20 U/mL. […] In contrast, cells pre-treated for 1 to 2 hours prior to diABZI c3, simultaneous treatment with A11 and diABZI c3, or pre-treating cells for 15 minutes with diABZI c3 followed by A11 treatment led to a decrease in the CXCL10 media concentration to -10 - 20 pg/mL (Figure 9B; filled bars).

STING [6] = target: T1, STING; experiment: Western Blot analysis for S1 STING ligand antagonism in primary human skin fibroblasts; format: cell-based; design: host or cells: HFF-1 human foreskin fibroblasts; conditions: 5 µM; 2 h or 1 h before, simultaneously with, or 15 minutes after 0.3 µM diABZI
Procedure: To assess whether S1 STING ligands inhibit STING activation, primary human skin fibroblasts (Figure 5) or HFF-1 cells (Figure 6) were treated with various compounds which comprise only an S1 ligand domain and a Linker domain before undergoing Western Blot analysis as described below. Compounds A9, A11, A26 and A30 used in the following experiments share a common S1 ligand, which is also shared by Example compounds 1, 3, 5-29, 33-38.
Cells were incubated with A9 or A11 for 1 or 2 hours before addition of diABZI c3, treated with test compound and diABZI c3 simultaneously, or treated with A9 or A11 after 15 minutes incubation with diABZI c3. As a control, cells were also treated with diABZI c3 alone.

T1 sequence (Q86WV6 whole entry): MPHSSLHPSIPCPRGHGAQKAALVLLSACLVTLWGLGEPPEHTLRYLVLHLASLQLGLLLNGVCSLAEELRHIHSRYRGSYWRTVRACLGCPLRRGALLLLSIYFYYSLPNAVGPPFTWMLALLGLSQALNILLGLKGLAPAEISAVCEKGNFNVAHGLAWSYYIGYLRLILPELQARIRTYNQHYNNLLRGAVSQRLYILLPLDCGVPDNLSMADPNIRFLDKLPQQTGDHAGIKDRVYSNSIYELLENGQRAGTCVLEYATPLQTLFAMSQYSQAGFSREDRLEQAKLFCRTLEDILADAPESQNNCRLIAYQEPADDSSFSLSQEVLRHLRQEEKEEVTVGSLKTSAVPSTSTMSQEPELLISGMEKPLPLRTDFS
Sequence of C-terminal domain (CTD) of human STING (Q86WV6 155-379): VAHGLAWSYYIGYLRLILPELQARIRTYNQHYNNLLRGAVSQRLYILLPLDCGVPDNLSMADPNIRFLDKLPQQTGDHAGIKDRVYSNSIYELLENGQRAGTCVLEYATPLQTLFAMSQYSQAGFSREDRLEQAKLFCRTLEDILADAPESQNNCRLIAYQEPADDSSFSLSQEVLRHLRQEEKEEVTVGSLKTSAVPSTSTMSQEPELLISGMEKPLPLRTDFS

Compound | EC50 (STING [1]) | IC50 [2] | DC50 (STING [3]) | DC50 (STING [4]) | IFN media concentration (STING [5]; 5 µM) | CXCL10 media concentration (STING [5]; A9 5 µM) | LC3B lipidation (STING [6]) | P-STING intensity (activation of STING) (STING [6]) | P-TBK1 intensity (STING [6])
CCn1nc(C)cc1C(=O)N=c1n(C)c2cc(C(N)=O)ccc2n1CCC(CCn1c(=NC(=O)c2cc(C)nn2CC)n(C)c2cc(C(N)=O)ccc21)OCC(=O)NCCOCCOCCOCCOCCC(=O)NCCCCC(=O)N[C@H]1C[C@@H](C(=O)N[C@@H]2CCCc3ccccc32)N(C(=O)[C@@H](NC(=O)[C@H](C)NC)C2CCCCC2)C1 (some centres unmarked) [Example 10] | 200 to 1000 nM | 4.5 nM | < 200 nM | – | – | – | – | – | –
CCn1nc(C)cc1C(=O)N=c1n(C)c2cc(C(N)=O)ccc2n1CCC(CCn1c(=NC(=O)c2cc(C)nn2CC)n(C)c2cc(C(N)=O)ccc21)OCC(=O)NCCOCCOCCOCCOCCC(=O)N1CCN(C(=O)CCC(=O)NCCCCOc2cc(-c3scnc3C)ccc2CNC(=O)[C@@H]2C[C@@H](O)CN2C(=O)[C@@H](NC(=O)C2(F)CC2)C(C)(C)C)CC1 (some centres unmarked) [Example 19] | < 200 nM | 7.1 nM | – | < 200 nM | – | – | – | – | –
CCn1nc(C)cc1C(=O)N=c1n(C)c2cc(C(N)=O)ccc2n1CCC(CCn1c(=NC(=O)c2cc(C)nn2CC)n(C)c2cc(C(N)=O)ccc21)OCC(=O)NCCOCCOCCOCCOCCC(=O)N1CCN(C(=O)CCOCCC(=O)NCCCCOc2cc(-c3scnc3C)ccc2CNC(=O)[C@@H]2C[C@@H](O)CN2C(=O)[C@@H](NC(=O)C2(F)CC2)C(C)(C)C)CC1 (some centres unmarked) [Example 20] | < 200 nM | 2.7 nM | – | < 200 nM | – | – | – | – | –
CCn1nc(C)cc1C(=O)N=c1n(C)c2cc(C(N)=O)ccc2n1CCC(CCn1c(=NC(=O)c2cc(C)nn2CC)n(C)c2cc(C(N)=O)ccc21)OCC(=O)N1CCc2cc(OC)ccc2C1 (centres unmarked) [Example A9, 1-(5-{5-Carbamoyl-2-[(1-ethyl-3-methyl-5-pyrazolyl)carbonylimino]-3-methyl-2,3-dihydro-1H-1,3-benzimidazol-1-yl}-3-[2-(6-methoxy-1,2,3,4-tetrahydro-2-isoquinolyl)-2-oxoethoxy]pentyl)-2-[(1-ethyl-3-methyl-5-pyrazolyl)carbonylimino]-3-methyl-2,3-dihydro-1H-1,3-benzimidazole-5-carboxamide] | – | – | – | – | ~ 100 U/mL | ~ 30 U/mL | reduced LC3B lipidation | reduced intensity of P-STING | reduced P-TBK1 intensity
